The source of these data is patent publication US20090035815A1, “Synthetic Gene for Enhanced Expression in E. Coli” (priority 2007, published 2009).

The experiment relates to PC-12 cells. The experiment can be described thus: In-vitro bioassay of recombinant Nesiritide: cGMP induction in PC-12 cells. It is filed as cell-based, Rat. Conditions: 30 mins. From the text: In all five batches of Nesiritide of the present invention, the cGMP induction in PC-12 cells the Nesiritide concentration (nM) is directly proportional to the concentration of Nesiritide used in culture. Culture format: 24-well plate; Cells used: PC-12 cells (Rat adrenal pheochromocytoma); no. of cells plated: 1.0×10^6 cells per well; Parameter measured: cGMP from cell lysate; Method used: Competitive Inhibition Assay (Acetylated format); Kit used: Correlate-EIA cGMP kit Assay Design Inc., USA.
Nesiritide is known to elicit its biological activity via a cGMP second messenger system in vitro and in vivo. PC-12 cells were plated in Plain RPMI medium in 24-well plate and equilibrated at 37° C., 5% CO2 incubator for 2 hrs. Prestimulation medium (RPMI+0.1% BSA+0.1 mM IBMX) was added to cells for 10 mins. It was followed by the addition of different concentrations of Nesiritide for 30 mins at 37° C., 5% CO2 incubator. The cells were lysed with 0.1M HCL for 20 mins followed by 5-7 freeze-thaw cycles. The cell lysates were centrifuged in microfuge at 10000 rpm for 10 mins at 4° C. Protein concentration of the supernatant was estimated by Bradford's method. The supernatant from cell lysates was assayed for cGMP concentration (FIG. 13) using a cGMP kit (Assay Design Inc). The cGMP from cell lysates was estimated from cGMP standard curve. ED50 value was calculated.

Consider “USV B. No 5406: batch of recombinant nesiritide of the present invention (Seq. ID NO:2)”, for which the cGMP levels reads like this: (Nesiritide Conc 25 nM) 0.133 ± 0.004 pmol/mL; (Nesiritide Conc 50 nM) 0.161 ± 0.01 pmol/mL; (Nesiritide Conc 75 nM) 0.383 ± 0.02 pmol/mL; (Nesiritide Conc 100 nM) 0.444 ± 0.06 pmol/mL; (Nesiritide Conc 150 nM) 0.799 ± 0.08 pmol/mL; (Nesiritide Conc 200 nM) 1.214 ± 0.06 pmol/mL.
As to “USV B. No 5606: batch of recombinant nesiritide of the present invention (Seq. ID NO:2)”, the cGMP levels (Nesiritide Conc 25 nM) was determined as 0.119 ± 0.01 pmol/mL; the cGMP levels (Nesiritide Conc 50 nM) was 0.150 ± 0.03 pmol/mL; the cGMP levels (Nesiritide Conc 75 nM) turned out to be 0.321 pmol/mL; the cGMP levels (Nesiritide Conc 100 nM) stood at 0.475 ± 0.01 pmol/mL; the cGMP levels (Nesiritide Conc 150 nM) stood at 0.787 ± 0.07 pmol/mL; the cGMP levels (Nesiritide Conc 200 nM) stood at 1.006 ± 0.05 pmol/mL.
In the case of “USV B. No 5706: batch of recombinant nesiritide of the present invention (Seq. ID NO:2)”, the cGMP levels stood at 0.114 ± 0.005 pmol/mL (Nesiritide Conc 25 nM); 0.191 ± 0.01 pmol/mL (Nesiritide Conc 50 nM); 0.305 ± 0.05 pmol/mL (Nesiritide Conc 75 nM); 0.478 ± 0.06 pmol/mL (Nesiritide Conc 100 nM); 0.756 ± 0.02 pmol/mL (Nesiritide Conc 150 nM); 1.085 ± 0.06 pmol/mL (Nesiritide Conc 200 nM).
Turning to “b-type natriuretic peptide (1-32) [Bachem, reference compound]”, the cGMP levels (Nesiritide Conc 25 nM) was found to be 0.121 ± 0.006 pmol/mL; the cGMP levels (Nesiritide Conc 50 nM) stood at 0.164 ± 0.05 pmol/mL; the cGMP levels (Nesiritide Conc 75 nM) came to 0.327 ± 0.05 pmol/mL; the cGMP levels (Nesiritide Conc 100 nM) was determined as 0.502 ± 0.05 pmol/mL; the cGMP levels (Nesiritide Conc 150 nM) was 0.793 ± 0.02 pmol/mL; the cGMP levels (Nesiritide Conc 200 nM) was determined as 1.206 ± 0.08 pmol/mL.
